{"source": "patent US10238630B2", "about": "“Use of eribulin and poly (ADP ribose) polymerase (PARP) inhibitors as combination therapy for the treatment of cancer” (Eisai R&D Management Co., Ltd., priority 2014, dated 2019)", "key": {"[1]": {"tested_on": "MDA-MB-468 human breast cancer xenografts", "assay": "Antitumor activity against subcutaneous MDA-MB-468 human breast cancer xenografts in athymic mice", "type": "in vivo", "description": "MDA-MB-468 human triple negative breast cancer cells are wild type for BRCA1 and 2 and PTEN null. Cells were maintained in monolayer cultures in RPMI-1640 growth medium supplemented with 10% fetal bovine serum at 37° C. in a 5% CO2 humidified incubator. On the day of inoculation, cells were harvested by trypsinization, washed, and resuspended in ice-cold PBS. Female immunodeficient athymic mice were inoculated subcutaneously near the right axillary area with MDA-MB-468 cells (5×10^6) in a 1:1 ratio (50 μL each) with matrigel in a volume of 0.1 mL in phosphate buffered saline using a 26-gauge needle. A total of 60 mice, approximately 8 weeks old were implanted with MDA-MB-468 cells.\nE7449 and E7389 were evaluated as single agents and in combination for antitumor activity against MDA-MB-468 human breast cancer xenografts in athymic mice. The experiment consisted of a vehicle control group, an E7449 single agent group, two groups treated with single agent E7389 and 2 combination drug-treated groups (Table 4). Sixty mice were inoculated with MDA-MB-468 cells. On day 7 following implantation, tumor volumes were measured and mice were randomized into the 6 treatment groups based on tumor volume (average of 180 mm^3). Following randomization drug treatment was initiated. Each group was composed of 6 mice for a total of 36 mice on the first day of treatment. E7449 was formulated in 0.5% methyl cellulose and orally administered daily at 100 mg/kg based on body weight at 0.1 mL per 10 g. E7449 was administered once daily for 28 days (starting on Day 7) as a single agent or in combination. E7389 was formulated in saline and was intravenously administered once every 4 days, 3 times (Day 7, 11, and 15) at a dosage of 0.1 or 0.4 mg/kg as single agent or in combination with E7449, based on body weight at 0.1 mL per 10 g. The control group was treated with oral vehicle (0.5% methyl cellulose in water) daily and intravenous vehicle (saline) once every 4 days, 3 times. E7449 or vehicle was administered first and when dosing of all animals was complete, E7389 was administered to animals receiving the combination.\nDrug treatment was initiated 7 days post tumor implantation and continued for 28 days. Animals whose tumor measurement reached […] at the longest axis or whose tumor became ulcerated were euthanized prior to study termination. The study was terminated on Day 52. Statistical analysis was performed on Days 35 and 52.\nStatistical analysis of the vehicle group (A) versus the drug-treated groups (B, C, D, E, and F) was performed by a one way analysis of variance (ANOVA) for tumor volume followed by Dunnett's multiple comparisons test. The analysis was performed at vehicle endpoint on Day 35 of the study. […]"}, "BR1282": {"tested_on": "BR1282", "assay": "Antitumor effect in patient-derived xenograft (PDx) BR1282 of triple negative breast cancer in athymic mice", "type": "in vivo, human"}, "total Akt levels": {"tested_on": "total Akt levels", "assay": "Pharmacodynamic biomarker analysis of total Akt and PI3K pathway proteins in tumor lysates by reverse phase protein microarray (RPMA)", "type": "in vivo", "description": "Multiple proteins in the P13K pathway were assessed by reverse phase protein microarray (RPMA) in tumor lysates. Akt levels decreased in all models except MDA-MB-231 (wild type for BRCA1 and 2 and PTEN) following single agent and combination treatments. This effect is specific for Akt as no changes in total PI3K, Erk, or Src were observed. Phosphorylated Akt (S473 & T308) decreased by E7389 and combination treatment at 48 hours in MDA-MB-468 tumors. […] No significant effects of treatment were observed on phosphorylated Src (Y527) levels in any tumor models."}, "[2]": {"conditions": "HCC1806 tumors, early time points"}}, "note": "“Also recorded” adds a separate entry of the source. Structures can show the parent of a compound that is named as a salt.", "data": [{"smiles": "C=C1C[C@@H]2CC[C@@]34C[C@H]5OC6[C@@H](O[C@H]7CC[C@H](CC(=O)C[C@@H]8[C@@H](OC)[C@@H](C[C@H](O)CN)O[C@H]8C[C@H]8O[C@@H](CC[C@@H]1O2)C[C@@H](C)C8=C)O[C@@H]7[C@@H]6O3)[C@H]5O4", "note": "[E7389, 11, 15:18,21:24,28-triepoxy-7,9-ethano-12,15-methano-9H,15H-furo[3,2-i]furo[2′,3′:5,6]pyrano[4,3-b] [1,4]dioxacyclopentacosin-5(4H)-one, 2-[(2S)-3-amino-2-hydroxypropyl]hexacosahydro-3-methoxy-26-methyl-20,27-bis(methylene)-, (2R,3R,3aS,7R,8aS,9S,10aR,11S,12R,13aR,13bS,15S,18S,21S,24S,26R,28R,29aS)-methanesulfonate (salt)]", "values": [{"measurement": "tumor re-growth following treatment", "setting": "[1]; E7389 0.1 mg/kg IV Q4Dx3, single agent", "value": "began re-growing within days of final E7389 dose"}, {"measurement": "tumor re-growth following treatment", "setting": "[1]; E7389 0.4 mg/kg IV Q4Dx3, single agent, up to Day 52", "value": "became tumor-free with no palpable tumors observed up to the date of study termination"}, {"measurement": "antitumor effect (tumor volume)", "setting": "[1]; E7389 0.1 and 0.4 mg/kg IV Q4Dx3, single agent", "value": "Tumor regression"}, {"measurement": "antitumor effect (tumor growth)", "setting": "BR1282; E7389 0.3 mg/kg, single agent", "value": "inhibited tumor growth to a similar degree"}, {"measurement": "antitumor effect (tumor growth)", "setting": "BR1282; E7389 single agent, 0.1 mg/kg (dose as read from the sentence)", "value": "had no impact on the tumor growth"}, {"measurement": "phosphorylated Akt (S473 & T308)", "setting": "total Akt levels; MDA-MB-468 tumors, 48 hours", "value": "decreased"}]}, {"smiles": "O=c1[nH]nc2c3c(cccc13)N=C(CN1Cc3ccccc3C1)N2", "note": "[E7449]", "values": [{"measurement": "antitumor effect (tumor volume)", "setting": "[1]; E7449 100 mg/kg PO QDx28, single agent, 100 mg/kg", "value": "did not significantly inhibit tumor growth; also recorded: No antitumor activity"}, {"measurement": "antitumor effect (tumor growth)", "setting": "BR1282; E7449 single agent", "value": "had no impact on the tumor growth"}, {"measurement": "phosphorylated Akt (S473 & T308)", "setting": "total Akt levels; [2]", "value": "Increased"}, {"measurement": "phosphorylated Erk (T202/Y204)", "setting": "total Akt levels; [2]", "value": "Increased"}]}]}
